In PubChem BioAssay AID2060502 (Molecular Pharmacology Branch, DTP, NCI, 2025):
pIC50: −log10 of the molar value.

System: 885724-159-R-J1-PDC complex spheroid viability
Assay: Anticancer human tumor 885724-159-R-J1-PDC patient-derived pancreatic adenocarcinoma cell line growth inhibition [GQUAD]
Conditions: for pIC50: curve of first compound; for viability, T/C: stronger effect = lower value
Source text: DNA G-quadruplex Stabilizer Agents in Combinations in Complex Spheroids
A high-throughput screen of multi-cell type tumor spheroids was designed to identify active combinations of DNA G-quadruplex stabilizer agents and targeted small molecules. Complex spheroids include a stromal component modeled by human endothelial cells (HUVEC) and fibroblasts modeled by human mesenchymal stem cells (MSCs). The concentration ranges selected for each drug and investigational agent were based upon clinically achievable concentrations if the clinical Cmax of the agent was known.
Compounds. The drugs and investigational agents: pidnarulex (CX-5461; NSC782164), APTO-253 (NSC789042), BRACO-19 (NSC847499), peposertib (NSC802822), ceralasertib (NSC780249), elimusertib (NSC800525), camonsertib (NSC841442), AZD-1390 (NSC803789), olaparib (NSC753686), talazoparib (NSC767125), ART-558 (NSC835418), sotorasib (NSC818433), MRTX-1133 (NSC836407), SN-38 (NSC673596), topotecan (NSC609699), etoposide (NSC141540), doxorubicin (NSC123127), gemcitabine (NSC613327), 5-fluorouracil (NSC19893), paclitaxel (NSC125973), vemurafenib (NSC761431), panobinostat (NSC761190), R-306465 (JNJ-16241199; NSC773264), adavosertib (NSC754352), TP-3654 (NSC805149), carboplatin (NSC241240), KSQ-4279 (NSC840948), and staurosporine (NSC755774) were obtained from the National Cancer Institute (NCI) Developmental Therapeutics Program Chemical Repository (34). The FDA-approved anticancer drug set is available from the NCI Developmental Therapeutics Program. […] The stock solutions were prepared in dimethyl sulfoxide (DMSO, Sigma-Aldrich, St. Louis, MO, cat. D2650) at 800-fold the tested concentration and stored at -70 degrees C prior to their use. All drugs and investigational agents were tested over a range starting from a high concentration at or near the clinical Cmax and decreasing in half-log increments. If the clinical Cmax for an agent had not been determined, the highest concentration tested was 10 microM.
2.3 Cell Culture. All cells were maintained in an incubator at 37 degrees C and 5% CO2 with 95% humidity. The PDC lines were cultured according to standard operating procedures established by the NCI PDMR. All PDCs were thawed and cultured in Matrigel-coated flasks prepared with a working solution of 1X Ham's F-12 nutrient mix, without supplementation (Invitrogen, cat. 11765054), 100 U/mL penicillin-streptomycin (Invitrogen, cat. 15140122), and 2.5% Matrigel (Corning Inc., cat. 354248) for the first three passages. The 857933-349-R-J2-PDC line was cultured in 6C/Colon 1B media, which includes advanced DMEM/F-12 (Thermo Fisher Scientific, cat. 12634028), 10 mM HEPES (Thermo Fisher Scientific, cat. 15630080), 1X GlutaMAX supplement (Thermo Fisher Scientific, cat. 35050061), 0.1 mg/mL primocin (InvivoGen, cat. ant-pm-2), 10% defined fetal bovine serum, heat inactivated (HyClone Laboratories Inc., cat. SH30070.03HI), 50% L-WRN conditioned media (ATCC, cat. CRL-3276), 1.25 mM N-Acetyl-L-cysteine (Sigma-Aldrich, cat. A9165), 10 mM nicotinamide (Sigma-Aldrich, cat. N0636), 1X B-27 supplement (Thermo Fisher Scientific, cat. 17504044), 1X N-2 supplement (Thermo Fisher Scientific, cat. 17502048), 10 microM Y-27632 dihydrochloride (Tocris Bioscience, cat. 1254), and 50 ng/mL human EGF recombinant protein (Thermo Fisher Scientific, cat. PHG0311). The 485176-168-R4-J1-PDC line was cultured in Panc media, which includes all 6C/Colon 1B media components plus 100 ng/mL human FGF-10 (Thermo Fisher Scientific, cat. 100-26), 500 nM SB-431542 (Selleckchem, cat. S1067), and gastrin (Tocris, cat. 3006).
[…]

[1] = second compound 0.0316 µM, first compound 0.0316 µM
[2] = second compound 0.0316 µM, first compound 0.1 µM
[3] = second compound 0.0316 µM, first compound 0.316 µM
[4] = second compound 0.0316 µM, first compound 1 µM
[5] = second compound 0.0316 µM, first compound 3.16 µM
[6] = second compound 0.0316 µM, first compound 10 µM
[7] = second compound 0.1 µM, first compound 0.0316 µM
[8] = second compound 0.1 µM, first compound 0.1 µM
[9] = second compound 0.1 µM, first compound 0.316 µM
[10] = second compound 0.1 µM, first compound 1 µM
[11] = second compound 0.1 µM, first compound 3.16 µM
[12] = second compound 0.1 µM, first compound 10 µM
[13] = second compound 0.316 µM, first compound 0.0316 µM
[14] = second compound 0.316 µM, first compound 0.1 µM
[15] = second compound 0.316 µM, first compound 0.316 µM
[16] = second compound 0.316 µM, first compound 1 µM
[17] = second compound 0.316 µM, first compound 3.16 µM
[18] = second compound 0.316 µM, first compound 10 µM
[19] = second compound 1 µM, first compound 0.0316 µM
[20] = second compound 1 µM, first compound 0.1 µM
[21] = second compound 1 µM, first compound 0.316 µM
[22] = second compound 1 µM, first compound 1 µM
[23] = second compound 1 µM, first compound 3.16 µM
[24] = second compound 1 µM, first compound 10 µM
[25] = second compound 3.16 µM, first compound 0.0316 µM
[26] = second compound 3.16 µM, first compound 0.1 µM
[27] = second compound 3.16 µM, first compound 0.316 µM
[28] = second compound 3.16 µM, first compound 1 µM
[29] = second compound 3.16 µM, first compound 3.16 µM
[30] = second compound 3.16 µM, first compound 10 µM
[31] = second compound 10 µM, first compound 0.0316 µM
[32] = second compound 10 µM, first compound 0.1 µM
[33] = second compound 10 µM, first compound 0.316 µM
[34] = second compound 10 µM, first compound 1 µM
[35] = second compound 10 µM, first compound 3.16 µM
[36] = second compound 10 µM, first compound 10 µM
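Note: spheroids exposed to agents for seven days before readout.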
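Throughout, for viability, T/C: percent of vehicle control viability where 100% = DMSO wells.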

Compound `C#Cc1c(F)ccc2cc(O)cc(-c3ncc4c(N5CC6CCC(C5)N6)nc(OCC56CCCN5CC(F)C6)nc4c3F)c12` (centres undefined) + CN(C)c1ccc(Nc2c3ccc(NC(=O)CCN4CCCC4)cc3nc3cc(NC(=O)CCN4CCCC4)ccc23)cc1 has a pIC50 (second compound 0.0316 µM) of 5.38, a pIC50 (second compound 0.1 µM) of 5.37 and a pIC50 (second compound 0.316 µM) of 5.28. It also gave a pIC50 (second compound 1 µM) of 5.36, a pIC50 (second compound 3.16 µM) of 5.53 and a pIC50 (second compound 10 µM) of 5.67. The viability, T/C [1] was 92.1%, the viability, T/C [2] was 112% and the viability, T/C [3] was 94.8%. It also gave a viability, T/C [4] of 86.9%, a viability, T/C [5] of 58.8% and a viability, T/C [6] of 22.8%. For the same compound, the viability, T/C [7] was 114%, the viability, T/C [8] was 100% and the viability, T/C [9] was 98.3%. It also gave a viability, T/C [10] of 86.2%, a viability, T/C [11] of 56.7% and a viability, T/C [12] of 26.1%. It also gave a viability, T/C [13] of 95%, a viability, T/C [14] of 100% and a viability, T/C [15] of 96.6%. The viability, T/C [16] was 79.2%, the viability, T/C [17] was 68.1% and the viability, T/C [18] was 28.7%. It also gave a viability, T/C [19] of 89.4%, a viability, T/C [20] of 72.7% and a viability, T/C [21] of 87.8%. It also gave a viability, T/C [22] of 79.3%, a viability, T/C [23] of 59.5% and a viability, T/C [24] of 24.6%. It also gave a viability, T/C [25] of 78.3%, a viability, T/C [26] of 68.1% and a viability, T/C [27] of 69.5%. It also gave a viability, T/C [28] of 60.9%, a viability, T/C [29] of 51.4% and a viability, T/C [30] of 24.7%. For the same compound, the viability, T/C [31] was 64.8%, the viability, T/C [32] was 68.7% and the viability, T/C [33] was 58%. For the same compound, the viability, T/C [34] was 84.2%, the viability, T/C [35] was 40.2% and the viability, T/C [36] was 2.3%.

`CCCS(=O)(=O)Nc1ccc(F)c(C(=O)c2c[nH]c3ncc(-c4ccc(Cl)cc4)cc23)c1F` + CN(C)c1ccc(Nc2c3ccc(NC(=O)CCN4CCCC4)cc3nc3cc(NC(=O)CCN4CCCC4)ccc23)cc1 was tested, and the pIC50 (second compound 0.0316 µM) was < 5.00, the pIC50 (second compound 0.1 µM) was < 5.00 and the pIC50 (second compound 0.316 µM) was < 5.00. The pIC50 (second compound 1 µM) was < 5.00, the pIC50 (second compound 3.16 µM) was 5.01 and the pIC50 (second compound 10 µM) was 5.24. For the same compound, the viability, T/C [1] was 112%, the viability, T/C [2] was 114% and the viability, T/C [3] was 116%. The viability, T/C [4] was 130%, the viability, T/C [5] was 139% and the viability, T/C [6] was 84.7%. The viability, T/C [7] was 99.8%, the viability, T/C [8] was 98.1% and the viability, T/C [9] was 121%. It also gave a viability, T/C [10] of 129%, a viability, T/C [11] of 133% and a viability, T/C [12] of 65.5%. The viability, T/C [13] was 97%, the viability, T/C [14] was 99.3% and the viability, T/C [15] was 108%. It also gave a viability, T/C [16] of 107%, a viability, T/C [17] of 146% and a viability, T/C [18] of 66%. It also gave a viability, T/C [19] of 80.4%, a viability, T/C [20] of 82% and a viability, T/C [21] of 109%. The viability, T/C [22] was 118%, the viability, T/C [23] was 134% and the viability, T/C [24] was 64.4%. For the same compound, the viability, T/C [25] was 81%, the viability, T/C [26] was 74.2% and the viability, T/C [27] was 101%. It also gave a viability, T/C [28] of 101%, a viability, T/C [29] of 114% and a viability, T/C [30] of 48.9%. The viability, T/C [31] was 80.2%, the viability, T/C [32] was 73.1% and the viability, T/C [33] was 82.1%. The viability, T/C [34] was 99.5%, the viability, T/C [35] was 93.9% and the viability, T/C [36] was 16.5%.
